According to US7799933B2, “Sulfonamide derivatives” (Hoffman-La Roche Inc., priority 2006, dated 2010):

Biological target: T1, L-CPT1 (human liver CPT1) (Homo sapiens, UniProt P50416)
T1 construct: made in house; host or cells: Pichia pastoris strain X-33 (pGAPZB/pGAPZA plasmids); crude cell-free extracts
T1 sequence (P50416 1-773): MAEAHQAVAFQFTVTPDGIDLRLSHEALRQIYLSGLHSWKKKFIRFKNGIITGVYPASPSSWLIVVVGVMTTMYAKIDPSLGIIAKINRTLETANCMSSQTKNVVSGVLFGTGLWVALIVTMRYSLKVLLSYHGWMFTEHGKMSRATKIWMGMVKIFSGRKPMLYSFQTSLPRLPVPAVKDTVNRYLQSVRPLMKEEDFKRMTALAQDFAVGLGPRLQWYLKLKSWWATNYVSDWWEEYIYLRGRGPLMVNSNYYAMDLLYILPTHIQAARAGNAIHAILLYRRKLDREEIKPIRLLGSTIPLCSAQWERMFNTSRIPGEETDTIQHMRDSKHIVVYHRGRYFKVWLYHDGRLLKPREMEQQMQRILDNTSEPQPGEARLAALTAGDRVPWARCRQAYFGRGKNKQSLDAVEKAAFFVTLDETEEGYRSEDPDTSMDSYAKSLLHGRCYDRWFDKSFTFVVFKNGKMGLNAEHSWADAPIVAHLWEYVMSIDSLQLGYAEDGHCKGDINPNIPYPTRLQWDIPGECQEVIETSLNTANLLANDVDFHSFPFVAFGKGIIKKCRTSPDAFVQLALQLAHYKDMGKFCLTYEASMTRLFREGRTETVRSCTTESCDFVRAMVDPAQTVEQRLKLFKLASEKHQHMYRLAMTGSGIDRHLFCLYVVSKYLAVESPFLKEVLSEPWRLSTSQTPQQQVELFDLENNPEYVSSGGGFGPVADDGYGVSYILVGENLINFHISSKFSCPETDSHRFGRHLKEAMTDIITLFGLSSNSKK
Experiment: L-CPT1 inhibition, spectrophotometric CPT activity assay with DTNB (Ellman's reagent)
Assay type: biochemical
Settings: human liver CPT1 expressed in P. pastoris, cell extracts; carnitine 500 μM, palmitoyl-CoA 80 μM, DTNB 300 μM, pH 7.4

IC50 [nM]	Compound
125	O=C(O)Cc1ccc(NC(=O)c2ccc3c(c2)N(S(=O)(=O)c2cccc(Cl)c2)CC3)cc1 [Example 7, (4-{[1-(3-Chloro-benzenesulfonyl)-2,3-dihydro-1H-indole-6-carbonyl]-amino}-phenyl)-acetic acid]
210	COc1ccc(Cl)cc1S(=O)(=O)N1CCc2c(C)cc(C(=O)Nc3ccc(CC(=O)O)cc3)cc21 [Example 14, (4-{[1-(5-Chloro-2-methoxy-benzenesulfonyl)-4-methyl-2,3-dihydro-1H-indole-6-carbonyl]-amino}-phenyl)-acetic acid]
